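Following 48 hours of exposure in 96-well plates, responses at five concentrations were used to interpolate endpoints linearly. GI50 is the concentration that inhibits growth by half.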 Activity calls are given as the source filed them. Cut-off read from the data, not from the text of the source: active = GI50 up to about 1.1 µM and inactive = higher. Where only a bound is given, the exact number is not on record here.

Among the test systems are A549; CCRF-CEM; COLO 205; EKVX; HCT-116; HCT-15; IGROV-1; M14; MDA-MB-435; MDA-N; NCI-H226; NCI-H23; NCI/ADR-RES; OVCAR-8; SK-MEL-2; SK-MEL-5; SN12C; SNB-75; TK-10; UACC-257.
Common to all, as to experiment: NCI-60 cell line screen, 48 h

`Cc1ccc2c(=O)cc(-c3ccc(-c4ccccc4)s3)[nH]c2n1`: the GI50 in the test with A549 is 58.6 µM (inactive); in the test with CCRF-CEM it was > 25.2 µM (inactive); in the test on COLO 205, > 100 µM (inactive); with EKVX, 27.2 µM (inactive); with HCT-116 it was 25.6 µM (inactive); with HCT-15, more than 28.8 µM. Also, the GI50 in the test on IGROV-1 was 34.9 µM (inactive); in the test with M14, > 100 µM (inactive); in the test with MDA-MB-435, 5.33 µM (inactive); in the test on MDA-N, 4.98 µM (inactive); with NCI-H226, 29.1 µM (inactive); in the test with NCI-H23 it was 22.1 µM (inactive). Further, the GI50 in the test on NCI/ADR-RES is > 57.1 µM (inactive); in the test on OVCAR-8 it was > 58.3 µM (inactive); with SK-MEL-2, > 100 µM (inactive); in the test with SK-MEL-5, 2.87 µM (inactive); with SN12C it was 58.6 µM (inactive); in the test on SNB-75, 72.4 µM (inactive). In addition, the GI50 in the test with TK-10 was > 48.3 µM (inactive); with UACC-257 it was 8.47 µM (inactive).
In the case of `COC1=CC(=O)c2c(O)c3c(c(O)c2C1=O)CC(C)(O)OC3` (stereo not given) [FUSARUBIN], the GI50 was 1.99 µM (inactive) with A549; 1.25 µM (inactive) in the test on CCRF-CEM; 0.897 µM (active) in the test with COLO 205; 5.32 µM (inactive) with EKVX; 2.96 µM (inactive) in the test with HCT-116; 1.58 µM in the test on HCT-15. The GI50 in the test on IGROV-1 is 1.99 µM (inactive); in the test on M14, 1.87 µM (inactive); with MDA-MB-435 it was 1.65 µM (inactive); with MDA-N, 1.89 µM (inactive); with NCI-H226, 15.7 µM (inactive); in the test with NCI-H23, 2.28 µM (inactive). Further, the GI50 with NCI/ADR-RES is 2.56 µM (inactive); in the test on OVCAR-8, 2.34 µM (inactive); with SK-MEL-2, 1.95 µM (inactive); in the test on SK-MEL-5 it was 1.16 µM (inactive); in the test with SN12C it was 3.61 µM (inactive); in the test on SNB-75, 16.1 µM (inactive). Moreover, the GI50 with TK-10 is 10.6 µM (inactive); in the test on UACC-257, 2.02 µM (inactive).
On to `COc1ccc(/N=C/N(C)C)c(C)c1`, for which the GI50 in the test with A549 is 7.23 µM (inactive); in the test with CCRF-CEM, 3.28 µM (inactive); in the test with COLO 205 it was 10.5 µM (inactive); with EKVX it was 10.6 µM (inactive); in the test with HCT-116 it was 4.15 µM (inactive); in the test with HCT-15 it was 35.3 µM. The GI50 in the test on IGROV-1 was 9.48 µM (inactive); with M14 it was 13.6 µM (inactive); in the test with MDA-MB-435, 6.08 µM (inactive); in the test on MDA-N, 6.18 µM (inactive); in the test on NCI-H226 it was 11.2 µM (inactive); in the test on NCI-H23, 2 µM (inactive). Also, the GI50 in the test with NCI/ADR-RES was 44.7 µM (inactive); in the test on OVCAR-8, 7.13 µM (inactive); with SK-MEL-2 it was 5.15 µM (inactive); with SK-MEL-5 it was 3.01 µM (inactive); with SN12C, 14.2 µM (inactive); in the test with SNB-75 it was 16.7 µM (inactive). The figures for the GI50 with TK-10 and in the test with UACC-257 were 19.8 µM (inactive) and 2.42 µM (inactive), respectively.
For the compound `c1ccc(NN(Cc2cnccn2)c2ccccc2)cc1`, the GI50 was 42.2 µM (inactive) with A549; 10.5 µM (inactive) in the test on CCRF-CEM; 84.3 µM (inactive) in the test on COLO 205; 75.5 µM (inactive) in the test on EKVX; 60.5 µM (inactive) in the test on HCT-116; 79.8 µM with HCT-15. The GI50 in the test with IGROV-1 was 83.2 µM (inactive); with M14, 90.2 µM (inactive); with MDA-MB-435, 89.9 µM (inactive); in the test with MDA-N it was 40.2 µM (inactive); in the test on NCI-H226 it was 80.2 µM (inactive); with NCI-H23, 83 µM (inactive). Moreover, the GI50 was 40.5 µM (inactive) in the test with NCI/ADR-RES; 66.7 µM (inactive) in the test with OVCAR-8; > 100 µM (inactive) in the test on SK-MEL-2; 40.2 µM (inactive) in the test with SK-MEL-5; 63.8 µM (inactive) in the test on SN12C; > 100 µM (inactive) in the test with SNB-75. Besides, the GI50 in the test with TK-10 was > 100 µM (inactive); with UACC-257, 51.6 µM (inactive).
As to `Clc1ccc(/C=C/c2nc(Cl)c(-c3ccc(Cl)cc3)c(Cl)n2)cc1`, the GI50 with A549 is 37.9 µM (inactive); in the test on CCRF-CEM it was 20.4 µM (inactive); in the test on COLO 205 it was > 100 µM (inactive); with EKVX it was 69.8 µM (inactive); in the test with HCT-116 it was 46.8 µM (inactive); in the test with HCT-15 it was more than 100 µM. In addition, the GI50 with IGROV-1 was 60 µM (inactive); in the test with M14 it was 29.7 µM (inactive); with MDA-MB-435, 53.2 µM (inactive); in the test with MDA-N it was 59.4 µM (inactive); with NCI-H226, 80.9 µM (inactive); in the test with NCI-H23, 27.1 µM (inactive). Besides, the GI50 is 68.2 µM (inactive) with NCI/ADR-RES; > 100 µM (inactive) in the test on OVCAR-8; 25.6 µM (inactive) with SK-MEL-2; 38.8 µM (inactive) with SK-MEL-5; 89.9 µM (inactive) in the test with SN12C; 19.3 µM (inactive) in the test with SNB-75. In addition, the values for the GI50 in the test on TK-10 and with UACC-257 were 62.5 µM (inactive) and 39.3 µM (inactive), respectively.
For the compound `CN(c1ccc(Cl)cc1)S(=O)(=O)c1ccccc1`, the GI50 in the test on A549 was 72.4 µM (inactive); with CCRF-CEM, 46.2 µM (inactive); in the test on COLO 205, 47.2 µM (inactive); in the test on EKVX it was 37.6 µM (inactive); in the test on HCT-116, 37.5 µM (inactive); in the test with HCT-15, 52.2 µM. Besides, the GI50 is > 100 µM (inactive) in the test with IGROV-1; 45.1 µM (inactive) in the test with M14; 41.3 µM (inactive) in the test on MDA-MB-435; 64.9 µM (inactive) in the test with MDA-N; 30.4 µM (inactive) in the test with NCI-H226; 30.8 µM (inactive) in the test with NCI-H23. The GI50 is 36 µM (inactive) with NCI/ADR-RES; 44.6 µM (inactive) in the test with OVCAR-8; > 100 µM (inactive) with SK-MEL-2; 18.7 µM (inactive) in the test with SK-MEL-5; > 100 µM (inactive) in the test with SN12C; 61.4 µM (inactive) with SNB-75. Besides, the results for the GI50 with TK-10 and in the test with UACC-257 were 65.6 µM (inactive) and > 100 µM (inactive), respectively.
`CC(C)Sc1nc(C#N)cc2c1CCCC2`: the GI50 in the test with A549 is 37.1 µM (inactive); in the test on CCRF-CEM, 24.8 µM (inactive); with COLO 205, 20.1 µM (inactive); in the test on EKVX, 49.4 µM (inactive); with HCT-116 it was 44.7 µM (inactive); with HCT-15 it was 37.6 µM. Besides, the GI50 with IGROV-1 is 96.2 µM (inactive); with M14, 48.6 µM (inactive); in the test on MDA-MB-435, 47 µM (inactive); in the test with MDA-N, 37.7 µM (inactive); in the test with NCI-H226, 40.6 µM (inactive); with NCI-H23, 58.9 µM (inactive). In addition, the GI50 in the test with NCI/ADR-RES is 39.2 µM (inactive); with OVCAR-8 it was 63.5 µM (inactive); in the test with SK-MEL-2, 23.2 µM (inactive); with SK-MEL-5, 15.8 µM (inactive); in the test on SN12C it was 51.3 µM (inactive); in the test on SNB-75, > 100 µM (inactive). Also, the GI50 was > 100 µM (inactive) in the test with TK-10 and 39.9 µM (inactive) in the test with UACC-257.
Turning to `Cc1n[nH]c(=O)n1N1C(=O)c2ccccc2C1=O`, the GI50 in the test with A549 is > 100 µM (inactive); in the test on CCRF-CEM it was > 100 µM (inactive); in the test with COLO 205, > 100 µM (inactive); in the test on EKVX, > 100 µM (inactive); with HCT-116 it was > 100 µM (inactive); in the test on HCT-15, more than 100 µM. The GI50 in the test on IGROV-1, in the test with M14, in the test with MDA-MB-435, with MDA-N, in the test on NCI-H226 and in the test on NCI-H23 was > 100 µM (inactive) in each case. Also, the GI50 is > 100 µM (inactive) in the test with NCI/ADR-RES; > 100 µM (inactive) with OVCAR-8; > 100 µM (inactive) in the test on SK-MEL-2; > 100 µM (inactive) in the test with SK-MEL-5; > 100 µM (inactive) in the test on SN12C; 26.4 µM (inactive) with SNB-75. Besides, the GI50 in the test with TK-10 and in the test on UACC-257 was > 100 µM (inactive) each time.
Regarding `CCCCCCCCCCCCCCCCC(=O)NCC(=O)NCC(=O)NC(Cc1ccccc1)C(=O)Oc1ccc([N+](=O)[O-])cc1` (stereo not given), the GI50 is > 10 µM (inactive) in the test with A549; 22 µM (inactive) in the test on CCRF-CEM; 20.2 µM (inactive) with COLO 205; 37.8 µM (inactive) in the test with EKVX; 18.6 µM (inactive) in the test with HCT-116; 19.1 µM in the test on HCT-15. Moreover, the GI50 in the test on IGROV-1 was > 100 µM (inactive); in the test on M14, 21.4 µM (inactive); in the test with MDA-MB-435, 58.5 µM (inactive); with MDA-N it was 48.5 µM (inactive); with NCI-H226, 35 µM (inactive); in the test with NCI-H23, 73.1 µM (inactive). Besides, the GI50 is 20.6 µM (inactive) in the test with NCI/ADR-RES; 19.2 µM (inactive) with OVCAR-8; 48.4 µM (inactive) in the test on SK-MEL-2; 21.6 µM (inactive) in the test with SK-MEL-5; 19.7 µM (inactive) in the test with SN12C; 45.2 µM (inactive) with SNB-75. The GI50 was 71 µM (inactive) in the test with TK-10 and 23.9 µM (inactive) in the test on UACC-257.
As for `Cc1ccccc1N/N=C1\C(=O)Nc2ccccc21`, the GI50 was > 100 µM (inactive) in the test with A549; > 100 µM (inactive) with CCRF-CEM; 95.1 µM (inactive) in the test with COLO 205; > 100 µM (inactive) in the test on EKVX; > 100 µM (inactive) with HCT-116; more than 100 µM with HCT-15. The GI50 is 0.0132 µM (active) in the test with IGROV-1; > 100 µM (inactive) with M14; > 100 µM (inactive) in the test with MDA-MB-435; > 100 µM (inactive) in the test on MDA-N; 41.7 µM (inactive) in the test with NCI-H226; > 100 µM (inactive) in the test with NCI-H23. Further, the GI50 is > 100 µM (inactive) in the test on NCI/ADR-RES; > 100 µM (inactive) with OVCAR-8; > 100 µM (inactive) in the test on SK-MEL-2; > 100 µM (inactive) in the test with SK-MEL-5; 88.9 µM (inactive) with SN12C; > 100 µM (inactive) with SNB-75. Besides, the GI50 in the test on TK-10 and in the test on UACC-257 was > 100 µM (inactive) in each case.
